Assay results reported in patent EP1243581A1, “Pyridinium compounds useful for the treatment of AGE-related diseases” (Torrent Pharmaceuticals Ltd, priority 2001, dated 2002).

Target: T1, AGE-BSA (Bos taurus, UniProt P02769)
T1 construct: Bovine serum albumin (fraction V) (BSA); from tissue; host or cells: bovine serum (fraction V albumin)
Assay: In-vitro screening for AGE-breaking activity (ELISA on 16 weeks AGE-BSA)
Type: biochemical, bovine
Conditions: for % breakage of AGE-BSA crosslinks at 1000 µM: Concentration 1 mM; for % breakage of AGE-BSA crosslinks at 1000 µM / % breakage of AGE-BSA crosslinks at 10000 µM / % breakage of AGE-BSA crosslinks at 2500 µM / inhibition at 25000 µM: 10µg/ml 16 weeks AGE-BSA, 37°C, 24 hours; for % breakage of AGE-BSA crosslinks at 10000 µM: Concentration 10 mM; for % breakage of AGE-BSA crosslinks at 2500 µM: Concentration 2.5 mM; for inhibition at 25000 µM: Concentration 25 mM
Description: • Materials: • Bovine serum albumin (fraction V) (BSA) • Glucose, analytical grade • Phosphate buffered saline (PBS) • Equipment: • Microplate ELISA Reader - Spectramax Plus (Molecular Devices, USA) • Microplate washer, (Bio -Tec Instruments, USA) • pH meter Methods of experiment: Elisa (Enzyme Linked Immunosorbent Assay) 160 mg/ml of protein, bovine serum albumin, BSA and 1.6M glucose sugar were dissolved in phosphate buffered saline, PBS. Sodium azide was added at 0.02% concentration as a preservative. The solution was filtered asceptically through a 0.22 µM filter and kept for aging at 37°C for 16 weeks. After 16 weeks the solution was dialyzed against PBS, aliquoted and stored at - 20°C.
To determine the AGE breaking activity, 10µg/ml of the 16 weeks AGE-BSA was incubated with different concentrations of the test compounds at 37°C for 24 hours and AGE breaking activity of the test compounds by ELISA was determined. […] Different concentrations of 16 weeks AGE-BSA were coated on a microtitre plate as standard. Each concentration is coated in triplicates. • 2. The test samples were coated on microtitre plate at a concentration of 5 ng. to 20 ng per well in triplicates. • 3. The plate was incubated at 37°C for one hour. • 4. After incubation the plate was washed with PBST (PBS with 0.05% Tween 20). • 5. Blocking with 5% skimmed milk in PBS at 37°C for one hour was done. • 6. The plate was washed with PBST. • 7. Primary antibody against AGE-BSA was added and the plate is incubated at 37°C for one hour. • 8. The plate was washed with PBST • 9. Secondary antibody anti rabbit HRPO (Horse-Radish Per Oxidase) conjugate was added and the plate is incubated at 37°C for one hour. • 10. The plate was washed with PBST. • 11. Colour development with OPD (orthophenylenediamine dihydrochloride) and hydrogen peroxide was done. • 12. OD (optical density) at (450nm reading - 620nm reading) was measured after incubation at 37°C for 15 minutes with Microplate ELISA Reader.
The breaker activity of the compounds were determined by the following formula: % Breaker activity =(OD450-620 Control - OD450-620 Test)/(OD450-620 Control)x 100 [formula]

T1 sequence (P02769 25-607): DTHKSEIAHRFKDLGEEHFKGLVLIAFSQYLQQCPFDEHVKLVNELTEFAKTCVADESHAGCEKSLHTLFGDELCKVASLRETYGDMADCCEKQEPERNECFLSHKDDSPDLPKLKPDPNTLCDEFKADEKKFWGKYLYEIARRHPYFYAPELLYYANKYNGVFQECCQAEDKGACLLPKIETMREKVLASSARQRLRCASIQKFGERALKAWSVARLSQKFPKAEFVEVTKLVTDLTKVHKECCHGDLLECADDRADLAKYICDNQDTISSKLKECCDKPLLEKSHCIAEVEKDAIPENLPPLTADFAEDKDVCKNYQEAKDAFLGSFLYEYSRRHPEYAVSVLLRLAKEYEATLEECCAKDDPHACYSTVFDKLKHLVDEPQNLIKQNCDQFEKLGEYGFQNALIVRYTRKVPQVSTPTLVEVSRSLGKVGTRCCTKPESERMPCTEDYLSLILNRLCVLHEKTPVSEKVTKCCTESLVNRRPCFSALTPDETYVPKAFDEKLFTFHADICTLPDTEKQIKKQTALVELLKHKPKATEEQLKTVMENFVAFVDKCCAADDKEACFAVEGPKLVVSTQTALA

Compound | % breakage of AGE-BSA crosslinks at 10000 µM [%] | inhibition at 10000 µM (read-out: % Breakage) [%] | other results
Cc1ccc(C(=O)NNS(C)(=O)=O)c[n+]1CC(=O)c1cccs1 [Compound 39, 1-(2-thien-2'-yl-2-oxoethyl)-3-(methanesulfonyl hydrazinocarbonyl) -6-methyl pyridinium bromide] | – | – | % breakage of AGE-BSA crosslinks at 1000 µM: 77.7%
O=C(NNC(=O)c1ccc[n+](CC(=O)c2ccc(Cl)s2)c1)c1ccc[n+](CC(=O)c2ccc(Cl)s2)c1 [Compound 44, N,N'-bis[3-carbonyl-1-(2-(5-chloro-thien-2-yl)-2-oxoethyl)pyridinium] hydrazine dichloride] | 78.4 | – | –
CC(C)NC(=O)C[n+]1cccc(C(=O)NNS(C)(=O)=O)c1 [Compound 25, 1-(2-isopropylamino-2-oxoethyl)-3-(2-methylsulfonylhydrazinocarbonyl) -pyridinium chloride] | – | 10.8 | –
CS(=O)(=O)NNC(=O)c1ccc[n+](CC(=O)c2ccc([N+](=O)[O-])s2)c1 [Compound 49, 1-2-(5-nitro-thien-2-yl)-2-oxoethyl)-3-(methanesulfonyl hydrazino carbonyl) pyridinium chloride] | – | – | % breakage of AGE-BSA crosslinks at 1000 µM: 42%
Cc1ccc(C(=O)NNC(=O)c2ccc[n+](CC(=O)c3cccs3)c2)c[n+]1CC(=O)c1cccs1 [Compound 31, 1-[1-(2-thien-2'-yl-2-oxoethyl)-6-methyl-3-carbonylpyridinium]-2-[1-(2-Thien-2'-yl-2-oxoethyl)-3-carbonylpyridinium] hydrazine dichloride] | – | – | % breakage of AGE-BSA crosslinks at 2500 µM: 85.7%
O=C(C[n+]1ccsc1)c1ccccc1 [PTB, N- phenacyl thiazolium bromide, reference compound] | – | 27 | inhibition at 20000 µM (read-out: % Breakage): 47%
O=C(NNS(=O)(=O)C(F)(F)F)c1ccc[n+](CC(=O)c2cccs2)c1 [Compound 50, 1-(2-thien-2'-yl-2-oxoethyl)-3-(trifluoromethanesulfonyl hydrazinocarbonyl) - pyridinium bromide] | 92.6 | – | –
CS(=O)(=O)NNC(=O)c1ccc[n+](CC(=O)c2cc([N+](=O)[O-])cs2)c1 [Compound 46, 1-(2-(4-nitro-thien-2-yl)-2-oxoethyl)-3-(methanesulfonyl hydrazinocarbonyl) pyridinium bromide] | – | 60.9 | –
NC(=O)c1cc(C(=O)NNC(=O)c2ccc[n+](CC(=O)c3cccs3)c2)c[n+](CC(=O)c2cccs2)c1 [Compound 42, 1-[1-(2-thien-2'-yl-2-oxoethyl)-5-aminocarbonyl-3-carbonylpyridinium]-2-[1-(2-Thien-2'-yl-2-oxoethyl)-3-carbonylpyridinium] hydrazine dichloride] | – | – | % breakage of AGE-BSA crosslinks at 1000 µM: 95.4%
COCCNC(=O)c1ccc[n+](CC(=O)c2ccc(Cl)cc2Cl)c1 [Compound 20, 1-(2',4'-dichloro-phenyl-2-oxoethyl)-3-(2-methoxyethylaminocarbonyl)-pyridinium bromide] | – | – | inhibition at 5000 µM (read-out: % Breakage): 17.7%
CCOC(=O)C1CSCN1C(=O)C[n+]1cccc(C(=O)NNS(C)(=O)=O)c1 (stereo not drawn) [Compound 43, 1-(2-(4-carbethoxy-thiazolidin-3-yl)-2oxoethyl)-3-(methanesulfonyl hydrazinocarbonyl) pyridinium chloride] | – | 25.1 | –
CCOC(=O)C1CCCN1C(=O)C[n+]1cccc(C(=O)NNS(C)(=O)=O)c1 (stereo not drawn) [Compound 34, 1-(2-(2-ethoxycarbonylpyrrolidin-1-yl)-2-oxoethyl)-3-(methanesulfonyl hydrazinocarbonyl) pyridinium chloride] | – | 25.3 | –
O=C(C[n+]1ccc(C(=O)NCCOC(=O)c2ccccc2)cc1)Nc1ccccc1 [Compound 48, 1-(2-phenylamino-2-oxoethyl)-4-[2-(benzoyloxy)ethylaminocarbonyl] pyridinium chloride] | – | 19.1 | –
O=C(C[n+]1cccc(C(=O)NNc2ccccc2)c1)Nc1ccccc1 [Compound 47, 1-(2-phenylamino-2-oxoethyl)-3-(phenyl hydrazinocarbonyl) pyridinium chloride] | – | – | inhibition at 2500 µM (read-out: % Breakage): 68.3%
COCCOC(=O)c1ccc[n+](CC(=O)c2ccc(Cl)cc2Cl)c1 [Compound 4, 1-(2-(2',4'-dichlorophenyl)-2-oxoethyl)-3-(2(methoxy)ethyloxycarbonyl) pyridinium bromide] | 13 | – | inhibition at 25000 µM (read-out: % Breakage): 41%
O=C(C[n+]1cccc(C(=O)NCCOC(=O)c2ccccc2)c1)Nc1ccccc1 [Compound 5, 1-(2-phenylamino-2-oxoethyl)-3-((benzoyloxy)ethylaminocarbonyl) pyridinium chloride] | 37 | – | inhibition at 25000 µM (read-out: % Breakage): 90%
CS(=O)(=O)NNC(=O)c1ccc[n+](CC(=O)N2CCC(Cc3ccccc3)CC2)c1 [Compound 33, 1-(2-(4-benzylpiperidin-1-yl)-2-oxoethyl)-3-(methanesulfonyl hydrazinocarbonyl) pyridinium chloride] | – | 20.9 | –
COCCNC(=O)c1ccc[n+](CC(=O)NC2CC2)c1 [Compound 22, 1-(2-cyclopropylamino-2-oxoethyl)-3-(2-methoxyethylaminocarbonyl)-pyridinium chloride] | – | 12.4 | –
CS(=O)(=O)NNC(=O)c1ccc[n+](CC(=O)c2ccc(Cl)s2)c1 [Compound 37, 1-(2-(5-chloro-thien-2-yl)-2-oxoethyl)-3-(methanesulfonyl hydrazinocarbonyl) pyridinium bromide] | – | 40.9 | –
Cc1ccc(C(=O)C[n+]2cccc(C(=O)NNC(=O)c3ccc[n+](CC(=O)c4ccc(C)s4)c3)c2)s1 [Compound 40, N,N'-bis[3-carbonyl-1-(2-(5-methyl-thien-2-yl)-2-oxoethyl)pyridinium] hydrazine dichloride] | 82 | – | –
CS(=O)(=O)NNC(=O)c1ccc[n+](CC(=O)c2cccs2)c1 [Compound 27, 1-(2-thien-2'-yl-2-oxoethyl)-3-(methanesulfonyl hydrazinocarbonyl) pyridinium chloride] | 17.5 | – | –
Cc1ccc(C(=O)C[n+]2cccc(C(=O)NNS(C)(=O)=O)c2)s1 [Compound 45, 1-(2-(5-methyl-thien-2-yl)-2-oxoethyl)-3-(methanesulfonyl hydrazinocarbonyl) pyridinium chloride] | – | 25.2 | –
CS(=O)(=O)NNC(=O)c1cc(Br)c[n+](CC(=O)c2cccs2)c1 [Compound 35, 1-(2-thien-2'-yl-2-oxoethyl)-3-(methanesulfonyl hydrazinocarbonyl)-5-bromo pyridinium bromide] | – | – | % breakage of AGE-BSA crosslinks at 2500 µM: 29.4%
O=C(NNC(=O)c1ccc[n+](CC(=O)c2cc([N+](=O)[O-])cs2)c1)c1ccc[n+](CC(=O)c2cc([N+](=O)[O-])cs2)c1 [Compound 38, N,N'-bis[3-carbonyl-1-(2-(4-nitro-thien-2-yl)-2-oxoethyl)pyridinium] hydrazine dichloride] | – | 75.9 | –

Further lines, with some results ahead:

% breakage of AGE-BSA crosslinks at 10000 µM [%] | Compound | inhibition at 10000 µM (read-out: % Breakage) [%] | other results
20.3 | CCOC(=O)C1CCCN1C(=O)C[n+]1cccc(C(=O)NNC(=O)c2ccc[n+](CC(=O)N3CCCC3C(=O)OCC)c2)c1 (stereo not drawn) [Compound 41, N,N'-bis[3-carbonyl-1-(2-(2-ethoxycarbonylpyrrolidin-1-yl)-2-oxoethyl)pyridinium] hydrazine dichloride] | – | –
14 | O=C(NNC(=O)c1ccc[n+](CC(=O)c2ccco2)c1)c1ccc[n+](CC(=O)c2ccco2)c1 [Compound 14, N, N' - bis [3-carbonyl-1-(2-furan-2'-yl-2-oxoethyl)pyridinium] hydrazine dibromide] | – | –
12.5 | O=C(NNC(=O)c1cccnc1Cl)c1ccc[n+](CC(=O)c2cccs2)c1 [Compound 24, 1-(2-thien-2'yl-2-oxoethyl)-3-(2-(2-chloro-3-pyridoylhydrazinocarbonyl) -pyridinium chloride] | – | –
32.4 | COCCNC(=O)c1cc(Br)c[n+](CC(=O)c2cccs2)c1 [Compound 29, 1-(2-thien-2'-yl-2-oxoethyl)-3-((2-methoxyethyl)aminocarbonyl)-5-bromo pyridinium chloride] | – | –
31.4 | CC(C)S(=O)(=O)NNC(=O)c1ccc[n+](CC(=O)c2cccs2)c1 [Compound 32, 1-(2-thien-2'-yl-2-oxoethyl)-3-(isopropylsulfonyl hydrazinocarbonyl) pyridinium bromide] | – | –
33.4 | CCOC(=O)NNC(=O)c1ccc[n+](CC(=O)c2cccs2)c1 [Compound 36, 1-(2-thien-2'-yl-2-oxoethyl)-3-(ethoxycarbonyl hydrazinocarbonyl) pyridinium bromide] | – | –
